The values that follow come from patent US10550125B2, “Prodrugs of imidazotriazine compounds as CK2 inhibitors” (BRISTOL-MYERS SQUIBB COMPANY, priority 2015, dated 2020).

A word on the IC50: it is the concentration at which inhibition is half-maximal. A word on the solubility: it is the concentration that dissolves in the medium under given conditions.

The subject of one data set is pCK2 motif. Put plainly: In vivo pharmacodynamic study, pCK2 motif inhibition in SNU-C1 (colon) xenograft tumor model. The arrangement: species or system mice. The note with it: for % inh. of p-CK2 at 24th hour: oral gavage, SNU-C1 (colon) xenograft in mice. As to the method:
pCK2 motif is a putative cellular substrate of CK2 with molecular weight of ˜60 kDa.
To determine extent of pCK2 motif inhibition by test compounds in vivo, SNU-C1 colon tumor cells were inoculated into female BALB/c athymic mice and propagated as subcutaneous xenografts. The dosing solutions of the compound or control were administered to mice with tumors reaching ˜500 mm by oral gavage at the indicated dose levels and schedules. Tumors were collected from control and treated mice at the indicated times and immediately frozen in liquid nitrogen. Frozen tumors were thawed on ice in 5 volumes of TTG buffer (Tris-HCl, pH 7.9, 10% glycerol, 0.02% Tween-20). Tumors were homogenized using a Qiagen TissueLyser II (3×1 min (1/30S)) in Qiagen Tissulyser tubes containing steel beads. Tumor homogenates were clarified by microcentrifugation at 13000 rpm for 10 min. Western blot analysis was performed using 60 μg of protein per lane on 4-15% BioRad SDS-PAGE gels. Blots were probed with an anti-pCK2 motif antibody (mAb #8738 Cell Signaling Technology) and anti-Actin antibody. The pCK2 motif antibody is a purified […] antibody developed by immunizing mice with a degenerate mixture of peptides corresponding to the consesnus phorylation site used by CK2. The intensity of the pCK2 motif band was measured on images obtained from the Licor Odyssey instrument. % pCK2 remaining at each dose was calculated relative to the average intensity of bands from untreated, control mouse tumors.

The nature of data set [1]: Single-dose pharmacokinetics in rats (oral bioavailability). In kind it is in vivo. The note with it: for Oral Bioavailability in Rats, % F: male Sprague-Dawley rats, ratio of dose-normalized AUC, oral vs IV; for Prodrug bioavailability in Rats, % F: dose-normalized AUC of parent (Example 1) after oral prodrug vs IV infusion of parent. As to the method:
In a study to determine oral bioavailability in male Sprague-Dawley rats, two groups of animals (N=3 per group, 300 to 350 g) are used. One group (non-fasted) receives the compound by IV infusion (over 10 minutes) via a jugular vein and one group (fasted) receives drug by oral gavage. Serial blood samples (˜0.3 mL) are collected from the jugular vein into tri-potassium ethylenediaminetetraacetic acid (K3EDTA)-containing tubes at 0.167 (for IV), 0.25, 0.5, 1, 3, 5, 7, and 24 hours, post dose and then centrifuged at 4° C. (1500 to 2000×g) to obtain plasma, which is stored at −20° C. until analysis by LC-MS/MS.
The pharmacokinetic parameters were obtained by non-compartmental analysis of plasma concentration (determined by LC/MS/MS) vs. time data (ThermoKinetica Software version 4.4.1). The peak concentration (Cmax) and time for Cmax, Tmax, were recorded directly from experimental observations. The area under the curve from time zero to the last sampling time (AUC0-t) was calculated using a combination of linear and log trapezoidal summations. The total plasma clearance (CLTp), steady-state volume of distribution (Vss), apparent elimination half-life (t½) and mean residence time (MRT) were estimated after IV administration. Estimation of T½ was made using a minimum of 3 time points with quantifiable concentrations.
For non-prodrugs, the absolute oral bioavailability F was estimated as the ratio of dose-normalized AUC values following oral and IV doses.
In case of prodrugs (e.g., Examples 2 and 5), absolute bioavailability F was estimated as the ratio of dose-normalized AUC values of parent (Example 1) upon oral administration of prodrugs (Examples 2 and 5) and IV infusion of parent (Example 1).

A further data set addresses CK2A2 (Homo sapiens (Human), UniProt P19784). Put plainly: CK2 kinase assay (CK2A2). In kind it is biochemical. The note with it: recombinant CK2A2. As to the method:
(§1) The effectiveness of compounds of the present invention as inhibitors of protein kinases can be readily tested by assays known to those skilled in the art. For example, in vitro protein kinase assays may be conducted with a relevant purified protein kinase and an appropriate synthetic substrate to determine the inhibitory activity of the compounds. […] Reaction mixtures were incubated at 30° C. for 1 hour, and reaction products were captured by binding to phosphocellulose (P81) filter plates. Incorporation of radioactive phosphate into the peptide substrate was determined by liquid scintillation counting. The potency of compounds in inhibiting CK2 is expressed as IC50, defined as the concentrations of compounds required to inhibit the enzymatic activity by 50%.
(§2) The inhibitory activity of the instant compounds may also be measured by recombinant CK2 holoenzyme kinase assays. The assays were performed in U-bottom 384-well plates. The final assay volume was 30 μl prepared from 15 μl additions of enzyme and substrates (fluoresceinated peptide FL-RRRADDSDDDDD-NH2 and ATP) and test compounds in assay buffer (20 mM HEPES pH 7.4, 10 mM MgCl2, 100 mM NaCl, 0.015% Brij35 and 0.25 mM DTT). The reaction was initiated by the combination of bacterially expressed, CK2 α/β or CK2 α′/β holoenzyme with substrates and test compounds. The reaction was incubated at room temperature for 60 minutes and terminated by adding 30 μl of 35 mM EDTA to each sample. The reaction mixture was analyzed on the Caliper LABCHIP® 3000 (Caliper, Hopkinton, Mass.) by electrophoretic separation of the fluorescent substrate and phosphorylated product. Inhibition data were calculated by comparison to no enzyme control reactions for 100% inhibition and vehicle-only reactions for 0% inhibition. The final concentration of reagents in the CK2 α/β assay was 25 μM ATP, 1.5 μM FL-RRRADDSDDDDD-NH2, 50 pM CK2 α/β holoenzyme, and 1.6% DMSO. The final concentration of reagents in the CK2 α′/β assay was 10 μM ATP, 1.5 μM FL-RRRADDSDDDDD-NH2, 100 pM CK2 α′/β holoenzyme, and 1.6% DMSO. Dose response curves were generated to determine the concentration required inhibiting 50% of kinase activity (IC50). Compounds were dissolved at 10 mM in dimethylsulfoxide (DMSO) and evaluated at eleven concentrations. IC50 values were derived by non-linear regression analysis.

For the next data set, the target named is CK2A1 (Homo sapiens (Human), UniProt P68400). In words: CK2 kinase assay (CK2A1). In kind it is biochemical. The note with it: recombinant CK2A1. As to the method: as §1, §2
Chain of CK2A1 (P68400 whole entry): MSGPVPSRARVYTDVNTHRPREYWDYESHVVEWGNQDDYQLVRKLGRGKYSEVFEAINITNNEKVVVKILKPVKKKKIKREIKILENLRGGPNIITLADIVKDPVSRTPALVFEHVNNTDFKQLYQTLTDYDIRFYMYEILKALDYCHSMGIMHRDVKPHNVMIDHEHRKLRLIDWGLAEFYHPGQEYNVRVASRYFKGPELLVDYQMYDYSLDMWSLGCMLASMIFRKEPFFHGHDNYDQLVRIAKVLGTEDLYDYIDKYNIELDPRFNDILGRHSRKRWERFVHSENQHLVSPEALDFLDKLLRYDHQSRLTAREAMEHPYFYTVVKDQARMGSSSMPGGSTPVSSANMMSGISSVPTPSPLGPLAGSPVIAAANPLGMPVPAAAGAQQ
The nature of data set [2]: Thermodynamic equilibrium aqueous solubility assay. In kind it is physicochemical. The note with it: for solubility at 24 h: aqueous buffer, thermodynamic from solid. The method, then: Standards Preparation: The calibration standard was prepared by accurately weighing 0.5-0.7 mg of sample in 5 ml of methanol. If the material was not fully soluble in methanol, other solvents such as DMSO or mixed solvents were used.
The solution was sonicated and vortexed for ˜30 seconds. The vials were shaken at 300 rpm at room temperature for 24 hrs. The exact incubation time for a specific prodrug was based on the prior aqueous stability data. If the compound was stable in the buffer up to 24 hrs, then the solubility was measured after 24 hrs, otherwise kinetic solubility data was reported. The final saturated solution was then transferred to a 1.5 mL eppendorf tube and centrifuged for ˜2 min. at 10000 rpms. The supernatant from the saturated solution was transferred to a glass HPLC vial and the solubility was analyzed by HPLC using a four point calibration curve.

[3] abbreviates: 50 mM potassium phosphate buffer, pH 6.5, 50 mM potassium phosphate, read-out: Solubility pH 6.5.
The mark [4] stands for this setting: simulated gastric fluid, pH 1.0, read-out: Solubility pH 1.0.
The mark [5] stands for this setting: 50 mM sodium acetate buffer, pH 4.0, 50 mM sodium acetate, read-out: Solubility pH 4.0.

Values after ≈ are worked out from the molar mass of the structure shown. Where two headings read alike, the source gives them in different places. Bounds are passed on as bounds.

Chain of CK2A2 (P19784 whole entry): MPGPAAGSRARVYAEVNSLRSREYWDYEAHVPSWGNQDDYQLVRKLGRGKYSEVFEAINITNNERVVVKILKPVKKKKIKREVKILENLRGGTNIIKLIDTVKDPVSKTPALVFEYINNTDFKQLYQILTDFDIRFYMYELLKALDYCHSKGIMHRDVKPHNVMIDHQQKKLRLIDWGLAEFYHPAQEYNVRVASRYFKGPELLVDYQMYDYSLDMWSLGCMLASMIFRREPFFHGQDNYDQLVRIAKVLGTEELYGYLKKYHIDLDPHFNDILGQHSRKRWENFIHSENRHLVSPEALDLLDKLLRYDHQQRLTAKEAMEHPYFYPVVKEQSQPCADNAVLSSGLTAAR

On to `COC(=O)N[C@H]1CCN(c2cc(C#N)cc(Nc3nc(NC4CC4)c4ncc(C#N)n4n3)c2Cl)C[C@@H]1O` [174 (WO2014011974), reference compound], for which the “% inh. of p-CK2 at 24th hour” value in the data set with pCK2 motif (40 mg/kg BID) worked out at 33%/40 mg/kg BID. Moreover, the “Oral Bioavailability in Rats, % F” value in data set [1] came out at 8 % F.

With `CCNc1nc(Nc2cc(C#N)cc(N3CCN([C@@H](C)C(N)=O)CC3)c2Cl)nn2c(C#N)cnc12` [Example 1, (S)-2-(4-(2-chloro-5-cyano-3-((7-cyano-4-(ethylamino)imidazo[2,1-f][1,2,4]triazin-2-yl)amino)phenyl)piperazin-1-yl)propanamide], in the data set with pCK2 motif (15 mg/kg BID), the “% inh. of p-CK2 at 24th hour” value was 91%/15 mg/kg BID. Besides, in the data set with pCK2 motif (SNU-C1 xenograft in mice, up to 24 hours), the “suppression of pCK2 motif levels relative to vehicle control (in words)” value is “significantly suppressed”. Also, the IC50 on CK2A2 and at CK2A1 was less than 10 nM throughout. Besides, the solubility at 24 h in data set [2] (setting [3]) was less than 1 µg/mL; in data set [2] (setting [4]), 22 µg/mL (≈ 44.5 µM). Further, the “Oral Bioavailability in Rats, % F” value in data set [1] was found to be 68 % F. In addition, in data set [1] (rats, oral), the “bioavailability in rats compared to Example 174 of WO2014011974 (in words)” value was “marked improvement in bioavailability”.

`CCNc1nc(N(C(=O)OCOC(=O)Cc2ccc(OP(=O)(O)O)cc2)c2cc(C#N)cc(N3CCN([C@@H](C)C(N)=O)CC3)c2Cl)nn2c(C#N)cnc12` [Example 2, (S)-(((3-(4-(1-amino-1-oxopropan-2-yl)piperazin-1-yl)-2-chloro-5-cyanophenyl)(7-cyano-4-(ethylamino)imidazo[2,1-f][1,2,4]triazin-2-yl)carbamoyl)oxy)methyl 2-(4-(phosphonooxy)phenyl)acetate]: the IC50 at CK2A2 lay in the range of 10 to 100 nM; on CK2A1 it was 100 to 1000 nM. Further, the “solubility compared to the parent compound Example 1 (in words)” value in data set [2] is reported as “superior solubility”. Also, the solubility at 24 h in data set [2] (setting [3]) is 835 µg/mL (≈ 1070 µM); in data set [2] (setting [5]) it was 124 µg/mL (≈ 159 µM); in data set [2] (setting [4]), 242 µg/mL (≈ 309 µM). Moreover, the “Prodrug bioavailability in Rats, % F” value in data set [1] (rats) is reported as 40 % F.

As to `CCNc1nc(N(C(=O)OCOC(=O)/C=C/C(=O)O)c2cc(C#N)cc(N3CCN([C@@H](C)C(N)=O)CC3)c2Cl)nn2c(C#N)cnc12` [Example 3, (S,E)-4-((((3-(4-(1-amino-1-oxopropan-2-yl)piperazin-1-yl)-2-chloro-5-cyanophenyl)(7-cyano-4-(ethylamino)imidazo[2,1-f][1,2,4]triazin-2-yl)carbamoyl)oxy)methoxy)-4-oxobut-2-enoic Acid], the IC50 was in the range of 10 to 100 nM at CK2A2 and 100 to 1000 nM on CK2A1.

For the compound `CCNc1nc(N(C(=O)OCOC(=O)CC(C)(C)COP(=O)(O)O)c2cc(C#N)cc(N3CCN([C@@H](C)C(N)=O)CC3)c2Cl)nn2c(C#N)cnc12` [Example 4, (S)-(((3-(4-(1-amino-1-oxopropan-2-yl)piperazin-1-yl)-2-chloro-5-cyanophenyl)(7-cyano-4-(ethylamino)imidazo[2,1-f][1,2,4]triazin-2-yl)carbamoyl)oxy)methyl 3,3-dimethyl-4-(phosphonooxy)butanoate], the IC50 at CK2A2 is less than 10 nM; at CK2A1 it was 10 to 100 nM.

In the case of `CCNc1nc(N(C(=O)OCOC(=O)CC(C)(C)c2c(C)cc(C)cc2OP(=O)(O)O)c2cc(C#N)cc(N3CCN([C@@H](C)C(N)=O)CC3)c2Cl)nn2c(C#N)cnc12` [Example 5, (S)-(((3-(4-(1-amino-1-oxopropan-2-yl)piperazin-1-yl)-2-chloro-5-cyanophenyl)(7-cyano-4-(ethylamino)imidazo[2,1-f][1,2,4]triazin-2-yl)carbamoyl)oxy)methyl 3-(2,4-dimethyl-6-(phosphonooxy)phenyl)-3-methylbutanoate], the IC50 at CK2A2 was 10 to 100 nM; at CK2A1, 100 to 1000 nM. Further, in data set [2], the “solubility compared to the parent compound Example 1 (in words)” value is on record as “superior solubility”. For the same compound, the solubility at 24 h was 1340 µg/mL (≈ 1580 µM) in data set [2] (setting [3]), 160 µg/mL (≈ 188 µM) in data set [2] (setting [5]) and 253 µg/mL (≈ 297 µM) in data set [2] (setting [4]). Moreover, the “Prodrug bioavailability in Rats, % F” value in data set [1] (rats) came out at 88 % F.
